Test results published in US20220117948A1, “TRITERPENOID ANTIFUNGALS FOR THE TREATMENT OF FUNGAL OSTEO-ARTICULAR INFECTIONS” (Scynexis, Inc., priority 2019, published 2022).
Starred links: 1 amine or outer side, 2 acyl side, 3 side chain; linkers in the order of their positions; H or OH if unused. Positions of bridges follow the written chain, without caps; N, C: chain ends. Non-standard residues stand in square brackets, D forms with d. Residues, ends and D or L forms follow the SMILES beside them. *: point of attachment. pTerphenylCO(4''-OnC5H11) = CCCCCOc1ccc(-c2ccc(-c3ccc(C(=O)*)cc3)cc2)cc1; Orn(4R-OH,5R-OH) = O=C([C@H](C[C@@H](O)[C@@H](O)N[*:3])N[*:1])[*:2]; hTyr(3S-OH,4S-OH) = N[C@H](C(=O)O)[C@H](O)[C@@H](O)c1ccc(O)cc1; Pro(3S-OH,4S-Me) = C[C@H]1CN[C@H](C(=O)O)[C@H]1O; Hyp = O=C(O)[C@@H]1C[C@@H](O)CN1

Assays:
[1] = cited from earlier work
[2] = mice; cited from earlier work
[3] = set-up: species or system male pigmented Long-Evans rats; settings: rat, in vivo
Experimental: As a first step of the feasibility evaluation, the tissue distribution of SCY-078 was evaluated in an animal model. […] WH rats were used for mass balance and pharmacokinetic (PK) determinations after i.v. and oral doses, and both WH and LE rats were used for Quantitative whole-body autoradiography (QWBA) determinations. Dose levels were selected to reflect the clinically relevant 11.2-μg·h/ml target exposure for Candida spp. infections. The concentration, homogeneity, radio purity, and stability of dosing formulations were confirmed to be acceptable before dosing. For QWBA whole-body sections (˜40 μm thick via Leica CM3600 cryomicrotome; Nussloch, Germany), where all major tissues, organs, and biological fluids were represented, sections were exposed for phosphor imaging (Fuji Biomedical, Stamford, Conn.) together with calibration standards. […] Quantification was performed by image densitometry with MCID image analysis software (v. 7.0; Interfocus Imaging Ltd., Linton, Cambridge, UK), and a standard curve was constructed from the integrated response (molecular dynamics counts [MDC]/mm2) and the nominal concentrations of the 14C-calibration standards. The concentrations of radioactivity were expressed as [14C]SCY-078 μg equiv/g tissue. The lower limit of quantitation was 0.024 and 0.049 μg equiv/g of tissue for i.v. and oral doses of SCY-078, respectively. […]

[4] = tested on: Candida albicans spondylodiscitis; type: in vivo, human; settings: Example A: person, Candida albicans spondylodiscitis L4/L5; oral 750 mg BID 2 days then 750 mg QD (citrate salt tablets); 277 days of treatment
Source text: (§1) This example presents treatment courses of two patients with Candida spondylodiscitis who were enrolled in an “Open-Label Study to Evaluate Efficacy and Safety of SCY-078 in Patients With Refractory or Intolerant Fungal Diseases (FURI)” (clinicaltrials.gov identifier NCT03059992).
(§2) Objective: The objective of the study is to evaluate the efficacy of orally administered SCY-078 for the treatment of fungal infections that are refractory to or intolerant of approved antifungal agents.
(§3) Study design: This is a multicenter, open-label, non-comparator, single-arm study to evaluate the efficacy, safety, and pharmacokinetics (PK) of SCY-078 (administered as the citrate salt) in male and female subjects≥18 years of age with documented invasive and/or severe candidiasis that has been refractory to or intolerant of, or has shown toxicities associated with standard of care (SoC) antifungal treatment. Subjects must have a documented eligible acute or chronic invasive candidiasis (including candidemia) and meet all study criteria to be considered for enrollment. […]
(§4) Efficacy: Efficacy will be assessed primarily in terms of global success (both clinical success and mycological success). Complete global response, partial global response, clinical success, and mycological success will also be assessed. […]

[5] = tested on: Candida tropicalis spondylodiscitis; type: in vivo, human; settings: Example B: person, Candida tropicalis spondylodiscitis L5/S1; oral 750 mg BID 2 days then 750 mg QD (citrate salt tablets); 88 days of treatment
Source text: as §1, §2, §3, §4

[6] = tested on: Candida and non-Candida isolates causing fungaemia; settings: 178 Candida and non-Candida isolates causing fungaemia; EUCAST E Def 7.3 and CLSI M27-A3; cited from earlier work
[7] = tested on: sessile (biofilm) forms of Candida and non-Candida isolates; settings: XTT reduction assay, confirmed by scanning electron microscopy; cited from earlier work

CCCCCOc1ccc(-c2ccc(-c3ccc(C(=O)N[C@H]4C[C@@H](O)[C@@H](O)NC(=O)[C@@H]5[C@@H](O)[C@@H](C)CN5C(=O)[C@H]([C@@H](C)O)NC(=O)[C@H]([C@H](O)[C@@H](O)c5ccc(O)cc5)NC(=O)[C@@H]5C[C@@H](O)CN5C(=O)[C@H]([C@@H](C)O)NC4=O)cc3)cc2)cc1 [anidulafungin] ({pTerphenylCO(4''-OnC5H11)}-[Orn(4R-OH,5R-OH)]T[Hyp][hTyr(3S-OH,4S-OH)]T[Pro(3S-OH,4S-Me)]; lactam 1-C)
bone/plasma concentration ratio ([1]; neonatal rats after a single dose): 0.21
skeletal muscle concentrations compared with plasma ([1]; rats): comparable to those in plasma

CC[C@H](C)C[C@H](C)CCCCCCCCC(=O)N[C@H]1C[C@@H](O)[C@@H](NCCN)NC(=O)[C@@H]2[C@@H](O)CCN2C(=O)[C@H]([C@H](O)CCN)NC(=O)[C@H]([C@H](O)[C@@H](O)c2ccc(O)cc2)NC(=O)[C@@H]2C[C@@H](O)CN2C(=O)[C@H]([C@@H](C)O)NC1=O [caspofungin]
skeletal muscle concentrations as % of those in plasma [2]: less than 50%

CC(C)[C@@H](C)[C@@]1(C)CC[C@]2(C)[C@H]3CC[C@@H]4[C@@]5(COC[C@@]4(C)[C@@H](OC[C@](C)(N)C(C)(C)C)[C@H](n4ncnc4-c4ccncc4)C5)C3=CC[C@@]2(C)[C@@H]1C(=O)O [SCY-078, (1S,4aR,6aS,7R,8R,10aR,10bR,12aR,14R,15R)-15-[[(2R)-2-amino-2,3,3-trimethylbutyl]oxy]-8-[(1R)-1,2-dimethylpropyl]-14-[5-(4-pyridinyl)-1H-1,2,4-triazol-1-yl]-1,6,6a,7,8,9,10,10a,10b,11,12,12a-dodecahydro-1,6a,8,10a-tetramethyl-4H-1,4a-propano-2H-phenanthro[1,2-c]pyran-7-carboxylic acid]
exposure observed in bone compared with plasma [3]: exceeded the exposure measured in plasma
exposure observed in bone marrow compared with plasma [3]: exceeded the exposure measured in plasma
patient's response to date [4]: improved
patient's response to date [5]: resolved
in vitro activity against planktonic form [6]: potent in vitro activity
antibiofilm activity [7]: activity against the biofilms
